One test addresses T1, human PPARγ2 (Homo sapiens, UniProt P37231).
T1 construct: the amino acids 182 to 505 of human PPARγ2; expressed in transfected cells; host or cells: COS7 cells (African green monkey kidney)
T1 sequence (P37231 182-505): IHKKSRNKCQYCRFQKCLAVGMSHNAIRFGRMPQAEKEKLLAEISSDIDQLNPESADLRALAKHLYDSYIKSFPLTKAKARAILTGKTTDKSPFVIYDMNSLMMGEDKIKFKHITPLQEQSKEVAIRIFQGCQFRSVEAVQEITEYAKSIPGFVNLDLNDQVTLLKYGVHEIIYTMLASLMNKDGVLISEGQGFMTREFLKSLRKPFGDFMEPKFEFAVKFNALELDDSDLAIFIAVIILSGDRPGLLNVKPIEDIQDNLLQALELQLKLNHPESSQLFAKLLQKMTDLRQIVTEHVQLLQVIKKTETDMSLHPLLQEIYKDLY
The test can be described thus: PPARγ activation activity, Gal4-PPARγ2 LBD luciferase transfection assay using COS7 cells. Format: cell-based. To be noted: Gal4-human PPARγ2 LBD chimera, 16 hours, rosiglitazone = 100%. On the procedure:
The agonistic activity of the compounds of the invention on PPARγ was measured based on the transfection assay using COS7 cells (DS Pharma Biomedical Co., Ltd., Osaka, Japan), which are the cell line derived from the kidney of the African green monkey. COS7 cells were cultured under 5% CO2 concentration, and DMEM medium containing 10% fetal bovine serum, glutamic acid, and antibiotics was used as a medium.
As an expression vector, a chimera in which DNA binding domain of Gal4, which is a yeast transcription factor, and ligand binding domain of human PPARγ2 are fused, i.e., a fused product between the amino acids 1 to 147 of Gal4 transcription factor and the amino acids 182 to 505 of human PPARγ2, was used. Furthermore, as a reporter vector, a firefly luciferase containing five copies of Gal4 recognition sequence in the promoter region was used. Plasmid transfection to the cells was performed according to a method which uses jetPEI (trade name, manufactured by Funakoshi Co., Ltd., Tokyo, Japan). Furthermore, β-galactosidase expression vector was employed as an internal standard.
After the transfection of the cells, the medium was replaced with a DMEM medium (containing 1% serum) added with the test compound, and the cells were further cultured for 16 hours. After that, the luciferase activity and β-galactosidase activity in the cell lysis solution were measured.
For the present test, dimethyl sulfoxide (DMSO) was used for dissolution and dilution of the test compounds, and during the cell treatment, the DMSO concentration in DMEM medium (containing 1% serum) was adjusted to 0.1%. As a positive compound, rosiglitazone (trade name, manufactured by ALEXIS Corporation, Switzerland) was used. The luciferase activity (%) of the test compounds (1 to 30 μmol/L) was calculated when the luciferase activity of rosiglitazone (3 to 10 μmol/L) is 100% and the luciferase activity in the absence of the test compound is 0%. The 50% effective concentration of the test compound (EC50, 50% effect concentration) was calculated by using SAS Preclinical Package Ver 5.0 (trade name, manufactured by SAS institute Japan Co., Tokyo, Japan), which is a statistical analysis program.
EC50 values of these compounds are described in Table 2. […] Under the same condition, the PPARγ activation activity of telmisartan, i.e., EC50, was 1 to 5 μM.

The subject of test [1] is Zucker diabetic fatty (ZDF) rats. Kind of test: Activity for diabetic nephropathy in Zucker diabetic fatty rats. The format is in vivo, rat. To be noted: 3 mg/kg once a day for 15 weeks, FIG. 5. On the procedure:
By using 8-week old Zucker diabetic fatty (ZDF) rats, the body weight, the elimination amount of urinary total protein (UTP), the plasma triglyceride concentration (TG), and the plasma total cholesterol concentration (TC) of each rat were measured before administration of the medicine, and group separation was performed by blocking assignment so that there was no variation of these values between respective groups. Solvent control (0.5% MC), 3 mg/kg telmisartan, 3 mg/kg of the compound of Example 21, and 3 mg/kg of the compound of Example 23 were administered iteratively for 15 weeks once a day. UTP, TG, and TC were measured according to a general method during the administration period at 4, 8, 12, and 15 weeks after the administration.
Vehicle, Telmisartan, Compound 23, and Compound 21 in FIGS. 4, 5, and 6 represent solvent control, telmisartan, the compound of Example 23, and the compound of Example 21, respectively. The horizontal axis of FIG. 4-1 represents time (weeks after administration), and the vertical axis represents the elimination amount of urinary total protein per 18 hours. The data in FIG. 4-1 represents average values of each individual in each point, wherein -●- represents Vehicle (solvent control), -♦- represents Telmisartan, -▪- represents Compound 23 (the compound of Example 23), and -▴- represents Compound 21 (the compound of Example 21). The vertical axis of FIG. 4-2 represents the elimination amount of urinary total protein per 18 hours. The data in FIG. 4-2 represents individual values and average values of each individual +standard deviation.
The vertical axis of FIG. 5 represents the plasma triglyceride concentration. The data in FIG. 5 represents individual values and average values of each individual.
The vertical axis of FIG. 6 represents the plasma total cholesterol concentration. The data in FIG. 6 represents individual values and average values of each individual.
Furthermore, it was believed that one reason for the potent activity may be related to improving activity of lipid metabolism, and it is believed that the potent activity is attributed to activities other than the angiotensin receptor antagonistic activity.

A further test has as its system db/db mice. Kind of test: Impaired glucose tolerance improving activity in type 2 diabetes model mouse. To be noted: oral once a day, Example 23 10 mg/kg, Example 21 30 mg/kg, telmisartan 30 mg/kg. The format is in vivo. On the procedure:
By using 7-week old db/db mice, the body weight and the plasma glucose concentration of each mouse were measured before administration of the medicine, and group separation was performed by blocking assignment so that there was no variation of these values between respective groups. Solvent control (0.5% MC), 5 mg/kg rosiglitazone, 30 mg/kg telmisartan, 10 mg/kg of the compound of Example 23, and 30 mg/kg of the compound of Example 21 were orally administered iteratively for 4 weeks, once a day. Blood collecting was performed from the orbital vein plexus, and the plasma glucose concentration was measured at 2 weeks after the initiation of the administration. Furthermore, oral glucose tolerance test was performed at 4 weeks after the initiation of the administration. Specifically, the mouse was fasted for 24 hours from the night before the glucose tolerance test, and then a glucose solution was orally administered at a dose of 2 g/kg. The blood was collected from the tail vein of the mouse at 15, 30, 60, and 120 minutes after the administration of the glucose solution, and the concentration of the plasma glucose was measured. The area surrounded with the measured plasma glucose concentration and the time was taken as the area under the curve (AUC), and AUC for 120 minutes after administration of the glucose solution was estimated from the trapezoidal method.
Vehicle, Rosiglitazone, Telmisartan, Compound 23, and Compound 21 in FIGS. 2 and 3 represent solvent control, rosiglitazone, telmisartan, the compound of Example 23, and the compound of Example 21, respectively. The vertical axis of FIG. 2 represents the plasma glucose concentration. The data in FIG. 2 represents individual values and average values of each individual. The vertical axis of FIG. 3 represents the area under the curve surrounded with the plasma glucose concentration and the time (for 120 minutes after administration of the glucose solution). The data in FIG. 3 represents individual values and average values of each individual. […] Such activities were not confirmed for the telmisartan administration group.

In turn, `CCCc1nc2c(C)cc(-c3nc4ccccc4n3C)cc2n1Cc1ccc(-c2ccccc2C(=O)O)cc1` [telmisartan, reference compound] had an EC50 at human PPARγ2 of 1 to 5 µM. In test [1], the plasma triglyceride concentration result is “such activity was not found”. Besides, the plasma glucose concentration result in the test on db/db mice (2 weeks after initiation, FIG. 2) was “not confirmed”. Moreover, the “AUC of plasma glucose in the glucose tolerance test (120 minutes after glucose solution)” value in the test with db/db mice (4 weeks, glucose 2 g/kg, FIG. 3) is “not confirmed”.

These data come from US8778954B2, “Phenylpyridine derivative and medicinal agent comprising same” (Kowa Company, Ltd., priority 2009, dated 2014).
